Measured values taken from patent publication US7772241B2, “Variolin derivatives and their use as antitumor agents” (Pharma Mar S.A., priority 2001, dated 2010).

How the values were obtained:
DU-145 = test: Inhibition of cells growth by colorimetric (SRB) assay, DU-145; details: for GI50 / CC50: Homo sapiens, DU-145, 48 h; for GI50: read-out: GI50 DU-145, SRB assay, 48 hours exposure; for CC50: read-out: LC50 DU-145, SRB assay, 48 hours exposure; for TGI DU-145: SRB assay, 48 hours exposure
Description: (§1) The finality of these assays is to interrupt the growth of a “in vitro” tumor cell culture by means a continued exhibition of the cells to the sample to be testing.
(§2) This form of the assay employs 96 well cell culture microplates of 9 mm diameter (Faircloth, 1988; Mosmann, 1983). Most of the cell lines are obtained from American Type Culture Collection (ATCC) derived from different human cancer types.
(§3) Cells are maintained in RPMI 1640 10% FBS, supplemented with 0.1 g/l penicillin and 0.1 g/l streptomycin sulphate and then incubated at 37° C., 5% CO2 and 98% humidity. For the experiments, cells were harvested from subconfluent cultures using trypsin and resuspended in fresh medium before plating.
(§4) Cells are seeded in 96 well microtiter plates, at 5×10^3 cells per well in aliquots of 195 μl medium, and they are allowed to attach to the plate surface by growing in drug free medium for 18 hours. Afterward, samples are added in aliquots of 5 μl in a ranging from 10 to 10^−8 μg/ml, dissolved in DMSO/EtOH/PBS (0.5:0.5:99). After 48 hours exposure, the antitumor effect are measured by the SRB methodology: cells are fixed by adding 50 μl of cold 50% (wt/vol) trichloroacetic acid (TCA) and incubating for 60 minutes at 4° C. Plates are washed with deionized water and dried. One hundred μl of SRB solution (0.4% wt/vol in 1% acetic acid) is added to each microtiter well and incubated for 10 minutes at room temperature. Unbound SRB is removed by washing with 1% acetic acid. Plates are air dried and bound stain is solubilized with Tris buffer. Optical densities are read on a automated spectrophotometric plate reader at a single wavelength of 490 nm.
(§5) The values for mean +/−SD of data from triplicate wells are calculated. Some parameters for cellular responses can be calculated: GI=growth inhibition, TGI=total growth inhibition (cytostatic effect) and LC=cell killing (cytotoxic effect).

LNCaP = test: Inhibition of cells growth by colorimetric (SRB) assay, LNCaP; details: for GI50 / CC50: Homo sapiens, LNCaP, 48 h; for GI50: read-out: GI50 LN-caP, SRB assay, 48 hours exposure; for CC50: read-out: LC50 LN-caP, SRB assay, 48 hours exposure; for TGI LN-caP: SRB assay, 48 hours exposure
Description: as §1, §2, §3, §4, §5

LoVo-Dox = test: Inhibition of cells growth by colorimetric (SRB) assay, LoVo-Dox; details: for GI50 / CC50: Homo sapiens, 48 h; for GI50: read-out: GI50 LOVO-DOX, SRB assay, 48 hours exposure; for CC50: read-out: LC50 LOVO-DOX, SRB assay, 48 hours exposure; for TGI LOVO-DOX: SRB assay, 48 hours exposure
Description: as §1, §2, §3, §4, §5

IGROV-1 = test: Inhibition of cells growth by colorimetric (SRB) assay, IGROV-1; details: for GI50 / CC50: Homo sapiens, IGROV-1, 48 h; for GI50: read-out: GI50 IGROV, SRB assay, 48 hours exposure; for CC50: read-out: LC50 IGROV, SRB assay, 48 hours exposure; for TGI IGROV: SRB assay, 48 hours exposure
Description: as §1, §2, §3, §4, §5

PANC-1 = test: Inhibition of cells growth by colorimetric (SRB) assay, PANC-1; details: for GI50 / CC50: Homo sapiens, PANC-1, 48 h; for GI50: read-out: GI50 PANC-1, SRB assay, 48 hours exposure; for CC50: read-out: LC50 PANC-1, SRB assay, 48 hours exposure; for TGI PANC-1: SRB assay, 48 hours exposure
Description: as §1, §2, §3, §4, §5

K-562 = test: Inhibition of cells growth by colorimetric (SRB) assay, K-562; details: for GI50 / CC50: Homo sapiens, K562, 48 h; for GI50: read-out: GI50 K-562, SRB assay, 48 hours exposure; for CC50: read-out: LC50 K-562, SRB assay, 48 hours exposure; for TGI K-562: SRB assay, 48 hours exposure
Description: as §1, §2, §3, §4, §5

LoVo = test: Inhibition of cells growth by colorimetric (SRB) assay, LoVo; details: for GI50 / CC50: Homo sapiens, LoVo, 48 h; for GI50: read-out: GI50 LOVO, SRB assay, 48 hours exposure; for CC50: read-out: LC50 LOVO, SRB assay, 48 hours exposure; for TGI LOVO: SRB assay, 48 hours exposure
Description: as §1, §2, §3, §4, §5

SK-MEL-28 = test: Inhibition of cells growth by colorimetric (SRB) assay, SK-MEL-28; details: for GI50 / CC50: Homo sapiens, SK-MEL-28, 48 h; for GI50: read-out: GI50 MEL-28, SRB assay, 48 hours exposure; for CC50: read-out: LC50 MEL-28, SRB assay, 48 hours exposure; for TGI MEL-28: SRB assay, 48 hours exposure
Description: as §1, §2, §3, §4, §5

IGROV-ET = test: Inhibition of cells growth by colorimetric (SRB) assay, IGROV-ET; details: for GI50 / CC50: Homo sapiens, 48 h; for GI50: read-out: GI50 IGROV-ET, SRB assay, 48 hours exposure; for CC50: read-out: LC50 IGROV-ET, SRB assay, 48 hours exposure; for TGI IGROV-ET: SRB assay, 48 hours exposure
Description: as §1, §2, §3, §4, §5

HT-29 = test: Inhibition of cells growth by colorimetric (SRB) assay, HT-29; details: for GI50 / CC50: Homo sapiens, HT-29, 48 h; for GI50: read-out: GI50 HT-29, SRB assay, 48 hours exposure; for CC50: read-out: LC50 HT-29, SRB assay, 48 hours exposure; for TGI HT-29: SRB assay, 48 hours exposure
Description: as §1, §2, §3, §4, §5

A-549 = test: Inhibition of cells growth by colorimetric (SRB) assay, A-549; details: for GI50 / CC50: Homo sapiens, A549, 48 h; for GI50: read-out: GI50 A-549, SRB assay, 48 hours exposure; for CC50: read-out: LC50 A-549, SRB assay, 48 hours exposure; for TGI A-549: SRB assay, 48 hours exposure
Description: as §1, §2, §3, §4, §5

SK-OV-3 = test: Inhibition of cells growth by colorimetric (SRB) assay, SK-OV-3; details: for GI50 / CC50: Homo sapiens, SK-OV-3, 48 h; for GI50: read-out: GI50 SKOV-3, SRB assay, 48 hours exposure; for CC50: read-out: LC50 SKOV-3, SRB assay, 48 hours exposure; for TGI SKOV-3: SRB assay, 48 hours exposure
Description: as §1, §2, §3, §4, §5

| Structure (SMILES) | GI50 (DU-145) | CC50 (DU-145) | TGI DU-145 (DU-145) | GI50 (LNCaP) | CC50 (LNCaP) | TGI LN-caP (LNCaP) | GI50 (LoVo-Dox) | CC50 (LoVo-Dox) | TGI LOVO-DOX (LoVo-Dox) | GI50 (IGROV-1) | CC50 (IGROV-1) | TGI IGROV (IGROV-1) | GI50 (PANC-1) | CC50 (PANC-1) | TGI PANC-1 (PANC-1) | GI50 (K-562) | CC50 (K-562) | TGI K-562 (K-562) | GI50 (LoVo) | CC50 (LoVo) | also measured |
| --- | --- | --- | --- | --- | --- | --- | --- | --- | --- | --- | --- | --- | --- | --- | --- | --- | --- | --- | --- | --- | --- |
| Nc1nccc2c(-c3ccnc(O)n3)c3cccnc3n12 [Compound 80] | 1.81 µM | 35.9 µM | 8.70E−06 | 0.97 µM | 2.79 µM | 1.65E−06 | 4.2 µM | 35.9 µM | 2.01E−05 | 1.55 µM | 24.8 µM | 3.26E−06 | 8.41 µM | 35.9 µM | 2.42E−05 | 9.88 µM | 35.9 µM | 3.59E−05 | 4.06 µM | 35.9 µM | TGI LOVO (LoVo): 1.48E−05; GI50 (SK-MEL-28): 2.42 µM; CC50 (SK-MEL-28): 19.7 µM; TGI MEL-28 (SK-MEL-28): 7.08E−06; GI50 (IGROV-ET): 2.48 µM; CC50 (IGROV-ET): 35.9 µM; TGI IGROV-ET (IGROV-ET): 9.45E−06; GI50 (HT-29): 2.45 µM; CC50 (HT-29): 35.9 µM; TGI HT-29 (HT-29): 3.59E−05; GI50 (A-549): 7.73 µM; CC50 (A-549): 32.7 µM; TGI A-549 (A-549): 1.59E−05; GI50 (SK-OV-3): 12.5 µM; CC50 (SK-OV-3): 35.9 µM; TGI SKOV-3 (SK-OV-3): 3.45E−05 |
| Nc1nccc2c(-c3ccncn3)c3c(OCc4ccccc4)ccnc3n12 [Compound 98] | 5.94 µM | 27.1 µM | 1.41E−05 | 1.85 µM | 23.9 µM | 6.49E−06 | 5.92 µM | 27.1 µM | 1.42E−05 | 8.96 µM | 26.8 µM | 1.55E−05 | 5.62 µM | 19 µM | 1.03E−05 | 7.82 µM | 25.8 µM | 1.42E−05 | 5.02 µM | 27.1 µM | TGI LOVO (LoVo): 1.51E−05; GI50 (SK-MEL-28): 7.52 µM; CC50 (SK-MEL-28): 21.2 µM; TGI MEL-28 (SK-MEL-28): 1.26E−05; GI50 (IGROV-ET): 7.22 µM; CC50 (IGROV-ET): 20.1 µM; TGI IGROV-ET (IGROV-ET): 1.21E−05; GI50 (HT-29): 15.6 µM; CC50 (HT-29): 27.1 µM; TGI HT-29 (HT-29): 2.71E−05; GI50 (A-549): 15.3 µM; CC50 (A-549): 27.1 µM; TGI A-549 (A-549): 2.71E−05; GI50 (SK-OV-3): 10.6 µM; CC50 (SK-OV-3): 27.1 µM; TGI SKOV-3 (SK-OV-3): 2.19E−05 |
| Nc1nccc2c(-c3ccnc(O)n3)c3c(O)ccnc3n12 [Compound 106] | 16.2 µM | 24.5 µM | 2.45E−05 | 6.42 µM | 24.5 µM | 1.64E−05 | 8.18 µM | 24.5 µM | 2.45E−05 | 6.69 µM | 24.1 µM | 1.27E−05 | 6.44 µM | 24.5 µM | 1.71E−05 | 10.6 µM | 24.5 µM | 2.45E−05 | 24.5 µM | 24.5 µM | TGI LOVO (LoVo): 2.45E−05; GI50 (SK-MEL-28): 8.87 µM; CC50 (SK-MEL-28): 24.5 µM; TGI MEL-28 (SK-MEL-28): 2.45E−05; GI50 (IGROV-ET): 4.97 µM; CC50 (IGROV-ET): 24.4 µM; TGI IGROV-ET (IGROV-ET): 1.10E−05; GI50 (HT-29): 24.5 µM; CC50 (HT-29): 24.5 µM; TGI HT-29 (HT-29): 2.45E−05; GI50 (A-549): 18.2 µM; CC50 (A-549): 24.5 µM; TGI A-549 (A-549): 2.45E−05; GI50 (SK-OV-3): 5.73 µM; CC50 (SK-OV-3): 24.5 µM; TGI SKOV-3 (SK-OV-3): 1.51E−05 |
| CSc1nccc(-c2c3c(Cl)ccnc3n3c(N)nccc23)n1 [Compound 107] | 0.653 µM | 29.2 µM | 1.44E−05 | 3.38 µM | 25.3 µM | 9.25E−06 | 0.127 µM | 23 µM | 5.98E−07 | 2.95 µM | 23.7 µM | 8.34E−06 | 4.99 µM | 29.2 µM | 2.92E−05 | 2.18 µM | 29.2 µM | 9.19E−06 | 0.173 µM | 29.2 µM | TGI LOVO (LoVo): 3.79E−06; GI50 (SK-MEL-28): 0.0248 µM; CC50 (SK-MEL-28): 29.2 µM; TGI MEL-28 (SK-MEL-28): 5.19E−06; GI50 (IGROV-ET): 1.57 µM; CC50 (IGROV-ET): 29.2 µM; TGI IGROV-ET (IGROV-ET): 1.44E−05; GI50 (HT-29): 1.11 µM; CC50 (HT-29): 29.2 µM; TGI HT-29 (HT-29): 2.92E−05; GI50 (A-549): 4.52 µM; CC50 (A-549): 29.2 µM; TGI A-549 (A-549): 2.70E−05; GI50 (SK-OV-3): 0.195 µM; CC50 (SK-OV-3): 29.2 µM; TGI SKOV-3 (SK-OV-3): 3.35E−06 |
